According to article PMC8156151 (The European Respiratory Journal, 2021):
Like-named read-outs stand apart in the source and are kept apart here.

What was measured:
Format in all cases: in vivo, human
CCL2 (MCP-1) = assay: Plasma biomarker CCL2; conditions: for CCL2 (MCP-1) raw data, Mean (SD) / CCL2 (MCP-1) least square means % baseline±SEM: IPF patients
Description: (§1) All patients, investigators, sites and study sponsor personnel were blinded to the study group assignments throughout the study. Patients underwent study-specific assessments on days 2, 3, 7, 14 and 15, and a post-study assessment was carried out 26–30 days after the last day of the study period. Assessments included vital signs (supine blood pressure, pulse, oxygen saturation, oral temperature and respiratory rate), spirometry, 12-lead ECG, physical examination, laboratory safety screen (haematology, biochemistry, urinalysis and urinary drugs of abuse screen) and blood sampling for PK measurements. All adverse events and concomitant medications were recorded from the time of the screening visit until the post-study follow-up visit. BAL was performed at day −1 (24 h before the first dose) and at day 14 (2 h after the last dose). The BAL procedure was performed as per international guidelines. Briefly, 240 mL of 0.9% saline at room temperature was instilled in 40 mL aliquots into the right middle lobe and aspirated by suction after each aliquot.
(§2) BAL cells were separated from fluid by centrifugation, and cells were collected, stained with antibodies (supplementary material) and then fixed before analysis using a LSR Fortessa flow cytometer (Becton Dickinson, Franklin Lakes, NJ, USA). Data were analysed using FlowJo software (Tree Star, Ashland, OR, USA). Macrophages were identified as having high side scatter properties and human leukocyte antigen-DR positivity. Gal-3 expression (mean fluorescence intensity) was determined from the macrophage gate (supplementary figures S1 and S2). […] Samples were analysed by magnetic Luminex assay (R&D Systems, Minneapolis, MN, USA) or ELISA.
(§3) For part 2 of the study, placebos were combined from the three dose-specific cohorts into a pooled control group (n=9). For alveolar macrophage Gal-3 expression and the plasma biomarkers, ANCOVA was performed for percentage of baseline ((day 14/day 1)×100). The ANCOVA model included effects for treatment group and baseline (day 1) value. […] An additional analysis including dose as a continuous covariate was also performed. The Pearson correlation coefficient (r) and associated p-value were calculated for percentage of baseline and day 14 values between plasma biomarkers and alveolar macrophage Gal-3 expression. […] The analysis is exploratory and there was no pre-planned adjustment for multiple testing; the study was not powered for this. Alveolar macrophage Gal-3 expression was considered the primary exploratory analysis with the pre-selected biomarkers secondary. A Bonferroni correction for multiple testing of the secondary end-points comparing the 10 mg group with placebo gives a critical value of 0.0063. Data are presented as the difference in least square means with 95% confidence interval and p-value unless otherwise stated. All analyses were performed using SAS version 9.4 (SAS Institute, Cary, NC, USA). […]

PDGF-BB = assay: Plasma biomarker PDGF-BB (Luminex/ELISA); conditions: for PDGF-BB raw data, Mean (SD) / PDGF-BB least square means % baseline±SEM: IPF patients
Description: as §1, §2, §3

[1] = Plasma pharmacokinetics, part 2 (IPF patients); conditions: for Cmin (plasma concentration at 24 h post-dose): BLQ: below limit of quantification (0.5 ng·mL^−1); for half-life / Cmax / concentration at 24 h / AUC(0-inf): human, plasma, inhaled; for concentration at 24 h: read-out: Cmin (plasma concentration at 24 h post-dose)
Description: Full plasma PK profiles were conducted on days 1 (first day of dosing) and 14 (last day of dosing). […] Standard noncompartmental methods were applied to derive PK parameters using Phoenix WinNonlin version 6.3 (Certara, Sheffield, UK). […] Drug compartment measurements in BAL alveolar macrophages and fluid were determined as described previously.

[2] = IPF patients, after 14 days of dosing
[3] = 3 mg, IPF patients, Day 1, 3 mg once daily, mean±SD
[4] = 3 mg, IPF patients, Day 14, 3 mg once daily, mean±SD
[5] = 10 mg, IPF patients, Day 1, 10 mg once daily, mean±SD
[6] = 10 mg, IPF patients, Day 14, 10 mg once daily, mean±SD

## OC[C@H]1O[C@@H](S[C@@H]2O[C@H](CO)[C@H](O)[C@H](n3cc(-c4cccc(F)c4)nn3)[C@H]2O)[C@H](O)[C@@H](n2cc(-c3cccc(F)c3)nn2)[C@H]1O [TD139]
CCL2 (MCP-1); 10 mg vs placebo, ANCOVA
  CCL2 (MCP-1) difference in least square means % baseline (95% CI): −71.7 (−187.1–43.7) % baseline
CCL2 (MCP-1); Day 14, 0.3 mg
  CCL2 (MCP-1) raw data, Mean (SD): 133.8 (15.06) pg/ml
CCL2 (MCP-1); Day 14, 3 mg
  CCL2 (MCP-1) raw data, Mean (SD): 137.6 (63.21) pg/ml
CCL2 (MCP-1); Day 14, 10 mg
  CCL2 (MCP-1) raw data, Mean (SD): 270.3 (348.45) pg/ml
CCL2 (MCP-1); day 14, 0.3 mg once daily
  CCL2 (MCP-1) least square means % baseline±SEM: 126.7±39.3 % baseline
CCL2 (MCP-1); day 14, 3 mg once daily
  CCL2 (MCP-1) least square means % baseline±SEM: 93.7±38.7 % baseline
CCL2 (MCP-1); day 14, 10 mg once daily
  CCL2 (MCP-1) least square means % baseline±SEM: 89.4±43.5 % baseline
PDGF-BB; 10 mg vs placebo, ANCOVA
  PDGF-BB difference in least square means % baseline (95% CI): −239.5 (−384.8– −94.2) % baseline
PDGF-BB; Day 14, 0.3 mg
  PDGF-BB raw data, Mean (SD): 1519 (1034.92) pg/ml
PDGF-BB; Day 14, 3 mg
  PDGF-BB raw data, Mean (SD): 2201.9 (2935.52) pg/ml
PDGF-BB; Day 14, 10 mg
  PDGF-BB raw data, Mean (SD): 1131.4 (1190.78) pg/ml
PDGF-BB; day 14, 0.3 mg once daily
  PDGF-BB least square means % baseline±SEM: 90.5±55.2 % baseline
PDGF-BB; day 14, 3 mg once daily
  PDGF-BB least square means % baseline±SEM: 103.7±54.1 % baseline
PDGF-BB; day 14, 10 mg once daily
  PDGF-BB least square means % baseline±SEM: 35.7±54.2 % baseline
[1]; IPF patients, Day 1, 0.3 mg once daily
  Cmin (plasma concentration at 24 h post-dose): BLQ
[1]; IPF patients, Day 14, 0.3 mg once daily
  Cmin (plasma concentration at 24 h post-dose): BLQ
[1]; [2]
  accumulation: ~50%
  increase in AUC0−inf, 10 mg values: 8 fold
  increase in Cmax, 10 mg values: 5 fold
[1]; from T1/2 of ∼8 h and dosing interval of 24 h
  expected accumulation: ~14%
[1]; inhaled or intranasal, overall value, read-out: plasma half-life (T1/2) (converted)
  half-life: 8 h
[1]; 0.3 mg, IPF patients, Day 1, 0.3 mg once daily, mean±SD
  Cmax: 0.55 ± 0.02 ng/mL
[1]; 0.3 mg, IPF patients, Day 14, 0.3 mg once daily, mean±SD
  Cmax: 0.86 ± 0.25 ng/mL
[1]; [3]
  concentration at 24 h: 1.06 ± 0.43 ng/mL
  AUC(0-inf): 69 ± 50 ng·h/mL
  Cmax: 10.6 ± 11.1 ng/mL
[1]; [4]
  concentration at 24 h: 1.48 ± 0.51 ng/mL
  AUC(0-inf): 149 ± 47 ng·h/mL
  Cmax: 16.5 ± 8.34 ng/mL
[1]; 3 mg, IPF patients, Day 1, 3 mg once daily, mean±SD, read-out: T1/2 (converted)
  half-life: 6.36 ± 2.09 h
[1]; 3 mg, IPF patients, Day 14, 3 mg once daily, mean±SD, read-out: T1/2 (converted)
  half-life: 6.91 ± 1.4 h
[1]; [5]
  concentration at 24 h: 12.9 ± 7.88 ng/mL
  AUC(0-inf): 921 ± 479 ng·h/mL
  Cmax: 56.3 ± 19.3 ng/mL
[1]; [6]
  concentration at 24 h: 14.7 ± 8.64 ng/mL
  AUC(0-inf): 1150 ± 462 ng·h/mL
  Cmax: 82.8 ± 11.8 ng/mL
[1]; 10 mg, IPF patients, Day 1, 10 mg once daily, mean±SD, read-out: T1/2 (converted)
  half-life: 9.69 ± 1.7 h
[1]; 10 mg, IPF patients, Day 14, 10 mg once daily, mean±SD, read-out: T1/2 (converted)
  half-life: 8.2 ± 2.26 h
